Experiments:
panel of 442 kinases [1] = target: T1, panel of 442 kinases (Homo sapiens, UniProt Q9BRS2); type: binding; details: Compound Concentration 10 µM
T1 construct: purchased KINOMEscan
T1 sequence (Q9BRS2 1-568): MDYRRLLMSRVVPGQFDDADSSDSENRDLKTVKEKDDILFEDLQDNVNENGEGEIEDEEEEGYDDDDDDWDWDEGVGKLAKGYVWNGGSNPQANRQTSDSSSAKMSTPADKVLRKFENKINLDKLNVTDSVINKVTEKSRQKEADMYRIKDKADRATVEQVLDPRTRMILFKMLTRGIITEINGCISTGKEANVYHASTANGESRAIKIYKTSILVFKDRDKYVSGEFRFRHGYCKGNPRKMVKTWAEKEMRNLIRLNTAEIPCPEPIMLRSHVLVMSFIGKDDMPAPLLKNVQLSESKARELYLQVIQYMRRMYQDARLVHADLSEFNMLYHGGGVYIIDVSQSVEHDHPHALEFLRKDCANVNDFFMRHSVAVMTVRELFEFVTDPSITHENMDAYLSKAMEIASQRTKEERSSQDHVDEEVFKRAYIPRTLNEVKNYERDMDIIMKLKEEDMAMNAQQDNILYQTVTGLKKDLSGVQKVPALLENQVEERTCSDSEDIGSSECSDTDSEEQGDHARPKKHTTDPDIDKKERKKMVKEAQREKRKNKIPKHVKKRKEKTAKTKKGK
Source text: (§1) We assessed the selectivity of members of this scaffold using the KINOMEscan methodology across a near comprehensive panel of 442 kinases [[18,27]].

panel of 442 kinases [2] = target: T2, panel of 442 kinases (Homo sapiens, UniProt Q8TBX8); type: binding; details: Compound Concentration 10 µM
T2 construct: purchased KINOMEscan
T2 sequence (Q8TBX8 1-421): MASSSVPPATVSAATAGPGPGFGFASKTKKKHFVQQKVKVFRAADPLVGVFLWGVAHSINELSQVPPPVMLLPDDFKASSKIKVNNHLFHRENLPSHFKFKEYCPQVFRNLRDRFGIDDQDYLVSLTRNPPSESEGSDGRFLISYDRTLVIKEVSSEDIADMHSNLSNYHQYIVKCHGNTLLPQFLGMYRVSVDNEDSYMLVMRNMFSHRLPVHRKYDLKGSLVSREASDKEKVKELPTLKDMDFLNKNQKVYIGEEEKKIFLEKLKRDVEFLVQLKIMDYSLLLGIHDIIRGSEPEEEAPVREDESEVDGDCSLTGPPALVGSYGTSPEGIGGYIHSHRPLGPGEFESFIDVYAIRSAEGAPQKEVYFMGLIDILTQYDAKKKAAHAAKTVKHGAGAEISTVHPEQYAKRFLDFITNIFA
Source text: as §1

Compound	KINOMEscan: RIOK1 (panel of 442 kinases [1])	KINOMEscan: PIP5K2C (panel of 442 kinases [2])
COc1cc(C(=O)N2CCC(N3CCN(C)CC3)CC2)ccc1Nc1ncc2c(n1)N(C)c1ccccc1C(=O)N2C [15 (LRRK2-IN-1)]	100	40
COc1cc(C(=O)N2CCC(N3CCN(C)CC3)CC2)ccc1Nc1ncc2c(n1)N(C1CCCC1)c1ccccc1C(=O)N2C [Compound 25, 11-cyclopentyl-2-((2-methoxy-4-(4-(4-methylpiperazin-1-yl)piperidine-1-carbonyl)phenyl)amino)-5-methyl-5H-benzo[e]pyrimido[5,4-b][1,4]diazepin-6(11H)-one]	76	96
CCOc1cc(C(=O)N2CCC(N3CCN(C)CC3)CC2)ccc1Nc1ncc2c(n1)N(C1CCCC1)c1ccccc1C(=O)N2C [Compound 26]	100	93
